Results on one compound are retold here after US20050119297A1, “Use of 5HT3 agonists for relaxing the fundus” (priority 1999, published 2005).

Assay [1] concerns gastric tone in conscious dogs. As to the kind of experiment: Gastric tone measured by an electronic barostat in conscious dogs. The class given is in vivo, beagle dogs. To be noted: mean maximal change in gastric volume 1 hour after administration, intragastric pressure 6 mmHg. How it is done:
C.1. Gastric Tone Measured by an Electronic Barostat in Conscious Dogs
Gastric tone cannot be measured by manometric methods. Therefore an electronic barostat was used. This allows the study of the physiological pattern and regulation of gastric tone in conscious dogs and the influence of test-compounds on this tone.
The barostat consists of an air injection system which is connected by a double-lumen 14-French polyvinyl tube to an ultrathin flaccid polyethylene bag (maximal volume: ±700 ml). Variations in gastric tone were measured by recording changes in the volume of air within an intragastric bag, maintained at a constant pressure. The barostat maintains a constant pressure (preselected) within a flaccid air-filled bag introduced into the stomach, changing the volume of air within the bag by an electronic feedback system.
Thus, the barostat measures gastric motor activity (contraction or relaxation) as changes in intragastric volume (decrease or increase resp.) at a constant intragastric pressure. The barostat consists of a strain gauge linked by an electronic relay to an air injection-aspiration system. Both the strain gauge and the injection system are connected by means of double-lumen polyvinyl tube to an ultrathin polyethylene bag. A dial in the barostat allows selection of the pressure level to be maintained within the intragastric bag.
Female beagle dogs, weighing 7-17 kg, were trained to stand quietly in Pavlov frames. They were implanted with a gastric cannula under general anaesthesia and aseptic precautions. After a median laparotomy, an incision was made through the gastric wall in longitudinal direction between the greater and the lesser curve, 2 cm above the nerves of Latarjet. The cannula was secured to the gastric wall by means of a double purse string suture and brought out via a stub wound at the left quadrant of the hypochondrium. Dogs were allowed a recovery period of two weeks.
At the beginning of the experiment, the cannula is opened in order to remove any gastric juice or food remnants. If necessary, the stomach is cleansed with 40 to 50 ml lukewarm water. The ultrathin bag of the barostat is positioned into the fundus of the stomach through the gastric cannula. In order to ensure easy unfolding of the intragastric bag during the experiment, a volume of 150-200 ml is injected into the bag by raising the pressure to maximally 14 mm Hg (about 1.87 kPa) very briefly. This procedure is repeated twice.
After a stabilization period of 60 minutes at an intragastric pressure of 6 mmHg (about 0.81 kPa), the test compound was administered subcutaneously, or intraduodenally. […] Table C-1 summarizes the mean maximal change in volume 1 hour after I.D. or S.C. administration of the compound (R)-N-(1-azabicyclo[2.2.2]oct-3-yl)-4,7-dihydro-7-oxothieno[3,2-b]pyridine-6-carboxamide monohydrochloride at test concentrations of 0.63 mg/kg, 0.16 mg/kg and 0.04 mg/kg.

A further assay concerns the target 5-HT3 receptor. To be noted: canine intestinal smooth muscle; read-out: affinity for the 5-HT3 receptor IC50; cited from earlier work.

As to `Cl.O=C(N[C@H]1CN2CCC1CC2)c1c[nH]c2ccsc2c1=O` [(R)-N-(1-azabicyclo[2.2.2]oct-3-yl)-4,7-dihydro-7-oxothieno[3,2-b]pyridine-6-carboxamide monohydrochloride], the “Maximum change in volume” value in assay [1] (I.D. administration, 0.04 mg/kg) is 57 mL; in assay [1] (I.D. administration, 0.16 mg/kg), 51 mL; in assay [1] (I.D. administration, 0.63 mg/kg), 104 mL; in assay [1] (S.C. administration, 0.04 mg/kg) it was 127 mL; in assay [1] (S.C. administration, 0.16 mg/kg) it was 108 mL; in assay [1] (S.C. administration, 0.63 mg/kg) it was 156 mL. The IC50 (as a rule, the concentration that gives 50% inhibition) at 5-HT3 receptor was 1.3 nM.
